According to US20080131920A1, “Ion flux in biological processes, and methods related thereto” (priority 2005, published 2008):
Several values for one entry are separate records, joined by “and”; a condition that tells them apart may be missing. Equal entries are not always repeated.

Legend:
Xenopus embryos = type: in vivo; conditions: treated from fertilization to stage 7; organs scored at stage 45
XNr-1 = test: Left-sided XNr-1 expression by whole mount in situ hybridization; set-up: species or system Xenopus laevis; conditions: in vivo
Protocol: As outlined above, effects on asymmetry were initially evaluated by inspection of embryo morphology. […] Embryos were treated with the H^+-V-ATPase inhibitory compound concanamycin.
Whole mount in situ hybridization (WISH) on Xenopus was performed according to standard methods. DNA used to transcribe in situ hybridization probes were XNr-1 (Lohr et al., 1998, Developmental Genetics 23: 194-202; Lowe et al., 1996, Nature 381: 158-161); cShh (Levin et al., 1995, Cell 82: 803-814); cNodal (Levin et al., 1995, Cell 82: 803-814).

[1] = system: H+ flux from living early blastomeres; test: Self-referencing ion-selective (Seris) probe measurement of H+ flux; set-up: species or system Xenopus laevis; conditions: in vivo
Description: We examined ion flux using a self-referencing ion probe to measure H^+ flux from living early blastomeres. The H^+-V-ATPase endogenously acts to pump protons out of the cell (e.g., it mediates proton efflux). We note, however, that other ion transporters modulate influx of ions. The term ion flux refers to movement of ions across membranes, regardless of the direction. The techniques provided herein can be used to evaluate changes in either ion efflux or influx, and thus can generally be used to evaluate ion flux and changes in ion flux following manipulation of an ion transporter protein or a class of ion transporter proteins.
To confirm that the asymmetric efflux was due to asymmetric H^+-V-ATPase function, we compared H^+ efflux in control embryos to efflux from embryos treated with a variety of ion flux inhibitors.
The self-referencing ion-selective (Seris) probe consists of an ion selective microelectrode that is translated between two points in the extracellular space near the plasma membrane of a cell. If a net flux of ion into or out of the cell is detected, the resultant concentration gradient will be detected as a voltage difference from which the ion flux through the membrane can be calculated. […]. […]

[2] = system: Vmem of Xenopus blastomeres; test: Membrane voltage imaging of blastomeres with DiBAC4(3); type: in vivo, Xenopus laevis; conditions: control vs treated embryos
Description: Embryos marked with Alexa 647 dextran in the right ventral cell (RV) at the four cell stage (to allow orientation with respect to both axes) were monitored using DiBAC4(3) at the 4, 8, 16, and 32 cell stages. At 16 cells, we observed hyperpolarization of the RV quadrant, relative to the LV quadrant. DiBAC4(3) intensity on the left was greater than on the right. This pattern and its embryological timing are consistent with the self-referencing probe data, and with the hypothesis that higher net H^+ efflux from the right side results in a difference in membrane potential across the ventral midline.
We confirmed this in Xenopus blastomeres by imaging Vmem in vivo in control and concanamycin-treated embryos. Predicting that the membrane would depolarize if H^+-V-ATPase-based proton efflux was inhibited, we monitored Vmem using the voltage-reporting dye DiBAC4(3).
Bis-(1,3-[…])-trimethine oxanol (DiBAC4(3), Molecular Probes, Eugene, Oreg.) is a membrane-permeant, fluorescent molecule that accumulates inside a cell in proportion to the membrane voltage. Because it is anionic, the more depolarized a cell, the greater the accumulation of DiBAC4(3) and the greater the intensity of intracellular, relative to extracellular, fluorescence. […]. The dye was excited with 488 nm light from an argon laser and a 20 nm band of emission wavelengths centered at 515 was collected.

primitive streak cells = test: Cellular pH imaging of early chick blastoderm with SNARF-1-AM; type: in vivo
H3P-positive cells = test: H3P-positive proliferating cell quantification in amputated larvae; type: in vivo, Xenopus laevis; conditions: for Average count of H3P-positive cells / Individual counts of H3P-positive cells: medial (flank) region
Description: To gain insight into the cellular mechanisms by which the V-ATPase participates in regeneration, we characterized the pattern of proliferating cells during regeneration, using an antibody to the phosphorylated Histone 3B—a standard marker of cells in the G2/M transition of the cell cycle, useful for identifying mitotic cells in regenerating systems including Xenopus (Saka and Smith, 2001, Dev Biol 229: 307-18; Sanchez Alvarado, 2003, Current Opinion in Genetics & Development 13: 438-444). At 24 hpa, this subset of proliferating cells is homogenously distributed throughout the growing tail (FIG. 14A). […]. […].
H3P staining marks cells in the G2/M transition of the cell cycle, and is commonly used for identifying mitotic cells in regenerating systems including Xenopus (Saka and Smith, 2001, Dev Biol 229: 307-18; Sanchez Alvarado, 2003, Current Opinion in Genetics & Development 13: 438-444). Fixed specimens at the stages indicated were processed for H3P staining as above using an alkaline-phosphatase secondary. Bleaching of the natural pigments in samples allowed easy counting of H3P-positive cells. The close-up panel to the left illustrates the distinction between purple alkaline-phosphatase signal (H3P-positive nuclei) and brown melanocytes. […] Between 4 and 6 samples were counted for each stage and each condition. Similar numbers were obtained in immunohistochemistry performed on sections as in wholemounts and in fluorescent detection (i.e., reagent penetration and chromogenic staining are not confounding factors in H3P-positive cell detection). […]

[3] = system: Xenopus tail regeneration

C/C=C/[C@H]1O[C@@](O)([C@@H](C)[C@H](O)[C@H](C)[C@H]2OC(=O)/C(OC)=C/C(C)=C/[C@@H](C)[C@@H](O)[C@@H](CC)[C@@H](O)[C@H](C)C/C(C)=C/C=C/[C@@H]2OC)C[C@@H](O)[C@@H]1C [concanamycin]
heterotaxia, % of the embryos (Xenopus embryos): 35% | left-sided gene expression of XNr-1 (XNr-1): perturbed the normally left-sided gene expression | left/right asymmetry in the proton fluxes [1]: eliminated | proton efflux on the right side [1]: about half of its original value | effect on Vmem [2]: depolarizes Vmem | pH of cells in the primitive streak (primitive streak cells): lowered the pH | Average count of H3P-positive cells (H3P-positive cells; 24 hpa): 51 | Individual counts of H3P-positive cells (H3P-positive cells; 24 hpa): 79 and 26 and 45 and 53 | Average count of H3P-positive cells (H3P-positive cells; 48 hpa): 49 | Individual counts of H3P-positive cells (H3P-positive cells; 48 hpa): 39 and 58 and 51 and 46 | reduction in the number of proliferating cells (H3P-positive cells; by 24 hpa, general (flank)): 3 fold | change in number of proliferating cells in the mid-flank between 24 and 48 hpa (H3P-positive cells; in vivo): does not change significantly | general toxicity ([3]; 150 nM): absence of general toxicity | effect on tail regeneration ([3]; 150 nM, larvae amputated at stage 41): strong inhibition of regeneration | effect on rate or extent of tail regeneration ([3]; compound in medium beginning immediately after tail amputation (stage 40-41)): absence of regeneration | Regeneration Index Treated/Control ([3]; tail regeneration in the compound versus control): 23% | Regeneration Index Treated ([3]; tail regeneration in the compound, RI computed for each dish of embryos): 49
